Here are results for 25 compounds from ChEMBL document CHEMBL4387790, “Ophiobolin-Type Sesterterpenoids from the Mangrove Endophytic Fungus Aspergillus sp. ZJ-68” (J Nat Prod, 2019).

Series [1] concerns the target T1, Phosphotyrosine protein phosphatase (Mycobacterium tuberculosis, UniProt A0A045ISB3).
T1 sequence (A0A045ISB3 whole entry): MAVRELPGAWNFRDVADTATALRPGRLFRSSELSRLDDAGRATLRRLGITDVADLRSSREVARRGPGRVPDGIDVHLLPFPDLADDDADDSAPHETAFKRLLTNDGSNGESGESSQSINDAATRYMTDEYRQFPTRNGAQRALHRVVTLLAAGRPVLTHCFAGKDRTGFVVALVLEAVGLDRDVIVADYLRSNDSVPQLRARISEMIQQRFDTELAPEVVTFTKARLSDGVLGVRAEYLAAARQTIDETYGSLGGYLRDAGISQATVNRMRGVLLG
In words: Inhibition of Mycobacterium tuberculosis H37Ra PTPB expressed in Escherichia coli BL21 (DE3) using p-nitrophenyl phosphate as substrate preincubated for 10 mins followed by substrate addition and measured for 5 mins by spectrophotometric analysis.

Series [2] can be described thus: Cytotoxicity against mouse RAW264.7 cells assessed as reduction in cell viability by MTT assay. Format: cell-based. In general terms: Tetrazolium assays rely on reduction of a dye to a coloured formazan, in cell work by metabolically active cells.
The subject of series [3] is RAW264.7. In words: Anti-inflammatory activity in mouse RAW264.7 cells assessed as inhibition of lipopolysaccharide-induced nitric oxide production incubated for 24 hrs coincubated with LPS by Griess reagent based assay. Format: functional, cell-based. As to conditions: RAW264.7, 24 h. (In general: Nitrite, measured by Griess reagent, commonly stands in for NO production.)

The test system of series [4] is RAW264.7. In words: Anti-inflammatory activity in mouse RAW264.7 cells assessed as inhibition of lipopolysaccharide-induced nitric oxide production at 50 uM incubated for 24 hrs coincubated with LPS by Griess reagent based assay. As to conditions: RAW264.7, 24 h. Format: functional.
Series [5] concerns the target T1, Phosphotyrosine protein phosphatase. In words: Inhibition of Mycobacterium tuberculosis H37Ra PTPB using p-nitrophenyl phosphate as substrate.

The term IC50 denotes the concentration that gives 50% inhibition. The term CC50 denotes the concentration that lowers cell viability or growth by half. Regarding `CO[C@]12C[C@@](C)(O)[C@H]3C[C@@]4(C)CC[C@H]([C@@H](C)/C=C\C=C(C)C)/C4=C/C=C(/C(=O)N1)[C@@H]32`, the IC50 (in series [1]; in the series with RAW264.7 [3]) was above 50 µM each time. The CC50 in series [2] was above 50 µM.
`CC(C)=C/C=C\[C@H](C)[C@H]1CC[C@]2(C)C[C@H]3[C@H]4/C(=C\C[C@@H]12)CO[C@@]4(O)C[C@@]3(C)O`: the IC50 in series [1] is above 50 µM. The CC50 in series [2] was determined as 31 µM.
Turning to `CC(C)=C/C=C\[C@H](C)[C@H]1CC[C@]2(C)C[C@@]3(O)[C@H](C)C[C@@H](O)[C@@H]3/C(C=O)=C\C[C@@H]12`, the IC50 (in series [1]; in the series with RAW264.7 [3]) was above 50 µM in each case. The cytotoxic concentration (CC50) in series [2] is above 50 µM.
In the case of `CC1=CC(=O)[C@H]2/C(C=O)=C\C[C@H]3[C@@H]([C@@H](C)/C=C\[C@H](O)C(C)(C)O)CC[C@]3(C)C[C@H]12`, the IC50 in series [1] was above 50 µM; in the series with RAW264.7 [3], 14 µM. Further, the CC50 in series [2] is above 50 µM.
For the compound `CC(C)=C/C=C\[C@H](C)[C@H]1CC[C@]2(C)C[C@@H]3C(C)=CC(=O)[C@H]3/C(C(=O)O)=C\C[C@@H]12`, the IC50 was 28 µM in series [1] and above 50 µM in the series with RAW264.7 [3]. Moreover, the CC50 in series [2] is above 50 µM.
As usually defined, the inhibition is the change of the read-out against control, counted positive when it falls. With `CC1=CC(=O)[C@@H]2/C(C=O)=C\C[C@H]3[C@@H]([C@@H](C)/C=C\[C@@H](O)C(C)(C)O)CC[C@]3(C)C[C@H]12`, the IC50 (in series [1]; in the series on RAW264.7 [3]) was above 50 µM each time. In addition, the inhibition at 50 µM in the series on RAW264.7 [4] was below 40%. Besides, the CC50 in series [2] is above 50 µM.
In turn, `CC(C)=C/C=C\[C@H](C)[C@H]1CC[C@]2(C)C[C@H]3[C@@H](C(=O)C[C@@]3(C)O)/C(C=O)=C\C[C@@H]12` returned an IC50 in series [1] above 50 µM. Further, the CC50 in series [2] came to 15 µM.
`CC(C)=C/C=C\[C@H](C)[C@H]1CC[C@]2(C)C[C@@H]3C(C)=CC(=O)[C@@H]3/C(C=O)=C\C[C@@H]12`: it took 24 µM to reach half-maximal inhibition in series [1] (IC50). Also, the CC50 in series [2] turned out to be 21 µM.
As to `CC(C)=C/C=C\[C@H](C)[C@H]1CC[C@]2(C)C[C@H]3[C@@H]4/C(=C\C=C\12)C(=O)N[C@@H]4C[C@@]3(C)O`, the IC50 (in series [1]; in the series on RAW264.7 [3]) was above 50 µM each time. For the same compound, the CC50 in series [2] is above 50 µM.
For the compound `CC(C)=C/C=C\[C@H](C)[C@H]1CC[C@]2(C)C[C@@H]3C(C)=CC(=O)[C@H]3/C(CO)=C\C[C@@H]12`, the IC50 in series [1] amounted to 37 µM; in the series with RAW264.7 [3] it was 25 µM. In addition, the CC50 in series [2] was above 50 µM.
In series [1], `CC(C)=C/C=C\[C@H](C)[C@H]1CC[C@]2(C)C[C@H]3[C@H](C(=O)C[C@@]3(C)O)/C(C=O)=C\C[C@@H]12` returned an IC50 above 50 µM. Moreover, the CC50 in series [2] came out at 4.8 µM.
Regarding `COc1ccc2c(c1)c(CC(=O)O)c(C)n2C(=O)c1ccc(Cl)cc1` [INDOMETHACIN], the CC50 in series [2] was above 50 µM. Besides, in the series on RAW264.7 [3], the IC50 is 38 µM.
Consider `CC(C)[C@H]1CC[C@@]2(C)CC[C@]3(CO)CC4=C(C(=O)O)CC[C@H]4[C@]4(C)C[C@@H]4[C@H]3[C@H]12`, for which the IC50 in series [5] is 2.2 µM.
`CC(C)=C/C=C\[C@H](C)[C@H]1CC[C@]2(C)C[C@H]3[C@@H]4/C(=C\C=C\12)C(=O)N[C@]4(O)C[C@@]3(C)O`: the IC50 in series [1] is 39 µM; with RAW264.7 [3], above 50 µM. In addition, the CC50 in series [2] is above 50 µM.
`CC(C)=C/C=C\[C@H](C)[C@H]1CC[C@]2(C)C[C@H]3[C@@H]4/C(=C\C[C@@H]12)CO[C@]4(O)C[C@@]3(C)O` gave an IC50 in series [1] above 50 µM. Moreover, in series [2], the CC50 amounted to 18 µM.
Turning to `CO[C@]12C[C@@](C)(O)[C@H]3C[C@@]4(C)CC[C@H]([C@@H](C)/C=C\C=C(C)C)[C@@H]4C/C=C(/C(=O)N1)[C@@H]32`, the IC50 (in series [1]; in the series with RAW264.7 [3]) was 42 µM throughout. Also, the CC50 in series [2] is above 50 µM.
The compound `CC(C)=C/C=C\[C@H](C)[C@H]1CC[C@]2(C)C[C@H]3[C@H]4/C(=C\C[C@@H]12)C(=O)O[C@H]4C[C@@]3(C)O` came in with an IC50 in series [1] above 50 µM. For the same compound, the CC50 in series [2] came out at 29 µM.
Turning to `CC1=CC(=O)[C@H]2/C(C=O)=C\C[C@H]3[C@@H]([C@@H](C)/C=C\[C@@H](O)C(C)(C)O)CC[C@]3(C)C[C@H]12`, the IC50 (in series [1]; with RAW264.7 [3]) was above 50 µM throughout. Further, the cytotoxic concentration (CC50) in series [2] was above 50 µM.
Turning to `CC(C)=C/C=C\[C@H](C)[C@H]1CC[C@]2(C)C[C@H]3[C@@H]4/C(=C\C[C@@H]12)C(=O)O[C@]4(O)C[C@@]3(C)O`, the IC50 was 36 µM in series [1] and above 50 µM with RAW264.7 [3]. Further, the CC50 in series [2] was above 50 µM.
As to `CC(C)=C/C=C\[C@H](C)[C@H]1CC[C@]2(C)CC3=C(C(=O)C[C@H]3C)/C(CO)=C\C[C@@H]12`, the IC50 is above 50 µM in series [1] and 14 µM with RAW264.7 [3]. Moreover, the CC50 in series [2] was above 50 µM.
Regarding `CC(C)=C/C=C\[C@H](C)[C@H]1CC[C@]2(C)C[C@H]3[C@@H](/C(C=O)=C\C[C@@H]12)[C@H](O)C[C@@]3(C)O`, the values for the IC50 (in series [1]; with RAW264.7 [3]) were above 50 µM and 9.6 µM, respectively. Besides, the CC50 in series [2] is above 50 µM.
As for `CC1=CC(=O)[C@H]2/C(C=O)=C\C[C@H]3[C@@H]([C@@H](C)/C=C\[C@@H]4OC4(C)C)CC[C@]3(C)C[C@H]12`, the figures for the IC50 (in series [1]; with RAW264.7 [3]) were 35 µM and 24 µM, respectively. Also, the CC50 in series [2] is above 50 µM.
Compound `CC(C)=C/C=C\[C@H](C)[C@H]1CC[C@]2(C)C[C@@H]3C(C)=CC(=O)[C@H]3/C(C=O)=C\C[C@@H]12` had an IC50 in series [1] above 50 µM. Also, the CC50 in series [2] stood at 3.8 µM.
Take `CC1=CC(=O)[C@@H]2/C(C=O)=C\C[C@H]3[C@@H]([C@@H](C)/C=C\[C@H](O)C(C)(C)O)CC[C@]3(C)C[C@H]12`: the IC50 came to 19 µM in series [1] and 21 µM in the series with RAW264.7 [3]. Also, in series [2], the CC50 was above 50 µM.
For the compound `C[C@@H](/C=C\[C@H](O)C(C)(C)O)[C@H]1CC[C@]2(C)C[C@H]3[C@@H](C(=O)C[C@@]3(C)O)/C(C=O)=C\C[C@@H]12`, the IC50 in series [1] is above 50 µM; with RAW264.7 [3], 16 µM. Besides, the 50% cytotoxic concentration (CC50) in series [2] was above 50 µM.
